In the experiment the target is T1, Axl (Homo sapiens, UniProt P30530).
T1 construct: endogenous in cells; host or cells: HeLa cells
T1 sequence (P30530 26-894): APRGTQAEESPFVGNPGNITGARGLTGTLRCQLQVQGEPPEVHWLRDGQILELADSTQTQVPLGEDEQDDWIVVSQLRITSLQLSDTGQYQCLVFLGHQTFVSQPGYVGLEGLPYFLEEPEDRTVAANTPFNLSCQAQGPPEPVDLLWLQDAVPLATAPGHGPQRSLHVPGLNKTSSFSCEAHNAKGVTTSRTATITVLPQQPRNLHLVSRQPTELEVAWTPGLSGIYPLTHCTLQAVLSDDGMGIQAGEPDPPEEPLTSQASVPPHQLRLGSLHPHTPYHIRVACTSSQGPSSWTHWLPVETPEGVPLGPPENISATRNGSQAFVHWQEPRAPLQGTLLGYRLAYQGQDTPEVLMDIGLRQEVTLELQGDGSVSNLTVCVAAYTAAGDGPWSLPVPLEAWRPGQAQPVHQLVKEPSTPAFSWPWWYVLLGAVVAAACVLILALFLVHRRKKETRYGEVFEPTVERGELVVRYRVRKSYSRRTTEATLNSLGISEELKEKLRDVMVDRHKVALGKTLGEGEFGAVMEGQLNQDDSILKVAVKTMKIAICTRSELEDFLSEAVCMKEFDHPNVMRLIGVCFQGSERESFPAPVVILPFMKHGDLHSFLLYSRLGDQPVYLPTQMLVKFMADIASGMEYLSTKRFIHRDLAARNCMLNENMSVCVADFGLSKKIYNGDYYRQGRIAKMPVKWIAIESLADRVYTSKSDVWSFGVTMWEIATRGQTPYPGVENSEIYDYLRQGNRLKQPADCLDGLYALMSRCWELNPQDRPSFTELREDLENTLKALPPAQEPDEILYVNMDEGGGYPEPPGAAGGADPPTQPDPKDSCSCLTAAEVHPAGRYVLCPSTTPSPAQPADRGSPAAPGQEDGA
As to the kind of experiment: Phospho-Akt in-cell Western assay (inhibition of Axl activity). It is filed as cell-based. Put shortly: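 HeLa cells on poly-L-lysine, starved 24 h in 0.5% FCS DMEM with Axl/Fc 500 ng/mL, pre-treated with compound 1 h at 37° C. Axl stimulated 5 min by anti-Axl/anti-mouse antibody cross-linking. Fixed cells probed with anti-phospho-Akt and HRP secondary, chemiluminescence read.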

Where [1] appears, read: inhibition of Axl activity, phospho-Akt in-cell Western assay, Table 1.
The mark [2] stands for this setting: Table 7, Hela cells, Axl antibody cross-linking stimulation, phospho-Akt chemiluminescence.
[3] abbreviates: inhibition of Axl activity, Table 1.
Where [4] appears, read: Table 3, Hela cells, Axl antibody cross-linking stimulation, phospho-Akt chemiluminescence.
The mark [5] stands for this setting: Table 8, Hela cells, Axl antibody cross-linking stimulation, phospho-Akt chemiluminescence.
Setting [6] is: Table 6, Hela cells, Axl antibody cross-linking stimulation, phospho-Akt chemiluminescence.
[7] abbreviates: Table 5, Hela cells, Axl antibody cross-linking stimulation, phospho-Akt chemiluminescence.

The IC50 is the concentration that inhibits the measured activity by half. With `Nc1nc(Nc2ccc(OCCN3CCCC3)cc2)nn1C(=O)c1ccc2c(c1)OCCO2` [compound #17, 5-Amino-1-(1,4-benzodioxan-6-yl)carbonyl-3-[4-[2-(pyrrolidin-1-yl)ethoxy]phenylamino]-1H-1,2,4-triazole], the half-maximal inhibitory concentration (IC50) under setting [1] was less than 1 µM.
For the molecule `CN(C)c1ccc(C(=O)n2nc(Nc3ccc(OCCN4CCCC4)cc3)nc2N)cc1` [compound #4, 5-Amino-1-(4-(dimethylamino)phenyl)carbonyl-3-[4-[2-(pyrrolidin-1-yl)ethoxy]phenylamino]-1H-1,2,4-triazole], under setting [1], the half-inhibitory concentration (IC50) was less than 1 µM.
As to `CC(C)(C)OC(=O)n1nc(Nc2ccc(N3CCCCC3)cc2)nc1N` [compound 201, 5-amino-3-[4-(piperidin-1-yl)phenylamino]-1-(tert-butoxycarbonyl)-1H-1,2,4-triazole], the half-inhibitory concentration (IC50) under setting [2] is greater than 20 µM.
Consider `Cc1cccc(C(=O)n2nc(Nc3ccc(OCCN4CCCCC4)cc3)nc2N)c1` [compound 59, 5-amino-1-(3-(methyl)phenyl)carbonyl-3-[4-[2-(piperidin-1-yl)ethoxy]phenylamino]-1H-1,2,4-triazole], for which, under setting [3], the 50% inhibitory concentration (IC50) is less than 1 µM.
Under setting [4], `Nc1nc(Nc2ccc(OCCN3CC[C@H](F)C3)cc2)nn1C(=O)c1ccc2c(c1)OCCO2` [compound 386, 5-amino-1-(1,4-benzodioxan-6-yl)carbonyl-3-[4-[2-((S)-3-fluoropyrrolidin-1-yl)ethoxy]phenylamino]-1H-1,2,4-triazole] displayed an IC50 of less than 1 µM.
Turning to `Cc1ccc(NC(=O)n2nc(N)nc2Nc2ccc(OCCN3CCCCC3)cc2)cc1` [compound 183, 3-amino-N-(4-(methyl)phenyl)-5-[4-[2-(piperidin-1-yl)ethoxy]phenylamino]-1H-1,2,4-triazole-1-carboxamide], the IC50 under setting [5] fell in the range of 1 to 10 µM.
`CC(C)Oc1ccc(C(=O)n2nc(N)nc2NC2C3C=CC(C3)C2C(N)=O)cc1` (stereo not shown) [compound 353, 3-amino-1-(4-(iso-propoxy)phenyl)carbonyl-5-[(3-(aminocarbonyl)bicyclo[2.2.1]hept-5-en-2-yl)amino]-1H-1,2,4-triazole] registered an IC50 under setting [6] greater than 20 µM.
On to `COc1ccc(Nc2nc(N)n(C(=O)c3ccc(C)cc3)n2)cc1` [compound 132, 5-amino-3-[4-(methoxy)phenylamino]-1-(4-(methyl)phenyl)carbonyl-1H-1,2,4-triazole], for which the IC50 under setting [3] lay in the range of 1 to 10 µM.
For `Cc1cccc(NC(=O)n2nc(Nc3ccc(OCCN4CCCC4)cc3)nc2N)c1` [compound 31, 5-amino-N-(3-methylphenyl)-3-[4-[2-(pyrrolidin-1-yl)ethoxy]phenylamino]-1H-1,2,4-triazole-1-carboxamide], the IC50 under setting [2] is less than 1 µM.
The molecule `CC(C)Oc1ccc(C(=O)n2nc(Nc3ccc(OCCN4CCCCC4)cc3)nc2N)cc1` [compound 163] returned a half-maximal inhibitory concentration (IC50) under setting [3] of less than 1 µM.
In the case of `CC(C)Oc1ccc(C(=O)n2nc(Nc3ccccc3)nc2N)cc1` [compound 333, 5-amino-1-(4-(iso-propoxy)phenyl)carbonyl-3-(phenylamino)-1H-1,2,4-triazole], the IC50 under setting [1] lay within 1 to 10 µM.
On to `Nc1nc(Nc2ccc(OCCN3CCCC3)cc2)nn1C(=S)Nc1c(F)cc(F)cc1F` [compound 325, 5-amino-N-(2,4,6-trifluorophenyl)-3-[4-[2-(pyrrolidin-1-yl)ethoxy]phenylamino]-1H-1,2,4-triazole-1-carbothioamide], for which, under setting [2], the IC50 was 1 to 10 µM.
`CC1(C)Oc2ccc(C(=O)n3nc(N)nc3Nc3ccc(N4CCCC4)cc3)cc2NC1=O` [compound 296, 3-amino-1-(2,2-dimethyl-2H-benzo[b][1,4]oxazin-3(4H)-on-6-yl)carbonyl-5-[4-(pyrrolidin-1-yl)phenylamino]-1H-1,2,4-triazole] registered an IC50 (Table 4, Hela cells, Axl antibody cross-linking stimulation, phospho-Akt chemiluminescence) of 10 to 20 µM.
As for `CCCCOc1ccc(NC(=O)n2nc(N)nc2Nc2ccc(OCCN3CCCCC3)cc2)cc1` [compound 182, 3-amino-N-(4-(butoxy)phenyl)-5-[4-[2-(piperidin-1-yl)ethoxy]phenylamino]-1H-1,2,4-triazole-1-carboxamide], the half-maximal inhibitory concentration (IC50) under setting [5] was greater than 20 µM.
In the case of `CC(C)(C)c1ccc(C(=O)n2nc(Nc3ccc(N4CCCC4)cc3)nc2N)cc1` [compound 297, 5-amino-1-(4-(tert-butyl)phenyl)carbonyl-3-[4-(pyrrolidin-1-yl)phenylamino]-1H-1,2,4-triazole], the IC50 under setting [1] is greater than 20 µM.
As for `CC(C)Oc1ccc(Nc2nc(N)n(C(=O)c3cccc(Cl)c3)n2)cc1` [compound 76, 5-amino-1-(3-(chloro)phenyl)carbonyl-3-[4-(iso-propoxy)phenylamino]-1H-1,2,4-triazole], the IC50 under setting [3] is greater than 20 µM.
`Nc1nc(Nc2ccc(OCCN3CCCC3)cc2)nn1C(=O)c1cccc(OC(F)(F)F)c1` [compound #7, 5-Amino-3-[4-[2-(pyrrolidin-1-yl)ethoxy]phenylamino]-1-(3-(trifluoromethoxy)phenyl)carbonyl-1H-1,2,4-triazole] yielded an IC50 under setting [1] of less than 1 µM.
On to `CC(C)(C)c1ccc(C(=O)n2nc(Nc3ccc(OCCN4CCCC4)cc3)nc2N)cc1` [compound 302, 5-amino-1-(4-(tert-butyl)phenyl)carbonyl-3-[4-[2-(pyrrolidin-1-yl)ethoxy]phenylamino]-1H-1,2,4-triazole], for which the IC50 under setting [1] was less than 1 µM.
In turn, `CN1CCN(c2ccc(Nc3nc(N)nn3C(=O)c3cccc(N(C)C)c3)cc2)CC1` [compound 364, 3-amino-1-(3-(dimethylamino)phenyl)carbonyl-5-(4-(4-methylpiperazin-1-yl)phenylamino]-1H-1,2,4-triazole] yielded a half-maximal inhibitory concentration (IC50) (Table 2, Hela cells, Axl antibody cross-linking stimulation, phospho-Akt chemiluminescence) of 1 to 10 µM.
Under setting [3], `COc1cccc(C(=O)n2nc(Nc3ccc4c(c3)OCCO4)nc2N)c1` [compound 98, 5-amino-3-(1,4-benzodioxan-6-yl)amino-1-(3-(methoxy)phenyl)carbonyl-1H-1,2,4-triazole] displayed an IC50 of 1 to 10 µM.
Turning to `CC(C)Oc1ccc(C(=O)n2nc(Nc3ccc(OCCN4CCCC4=O)cc3)nc2N)cc1` [compound 337, 5-amino-1-(4-(iso-propoxy)phenyl)carbonyl-3-[4-[2-(pyrrolidin-2-on-1-yl)ethoxy]phenylamino]-1H-1,2,4-triazole], the 50% inhibitory concentration (IC50) under setting [1] was less than 1 µM.
As for `CC(C)(C)Oc1ccc(C(=O)n2nc(N)nc2NC2C3C=CC(C3)C2C(N)=O)cc1` (stereo not shown) [compound 345, 3-amino-1-(4-(tert-butoxy)phenyl)carbonyl-5-[(3-(aminocarbonyl)bicyclo[2.2.1]hept-5-en-2-yl)amino]-1H-1,2,4-triazole], the IC50 under setting [6] was greater than 20 µM.
Under setting [7], `CCOC(=O)c1cc2cc(Nc3nc(N)n(C(=O)c4cccc(OC(C)C)c4)n3)ccc2o1` [compound 103, 5-amino-3-(2-(ethoxycarbonyl)benzofuran-5-yl)amino-1-(3-(iso-propoxy)phenyl)carbonyl-1H-1,2,4-triazole] gave an IC50 greater than 20 µM.
Same read-out and setting: to `CN(C)c1ccc(C(=O)n2nc(NC3CCN(S(C)(=O)=O)CC3)nc2N)cc1` [compound 395, 5-amino-1-(4-(dimethylamino)phenyl)carbonyl-3-(1-methylsulfonylpiperidin-4-yl)amino-1H-1,2,4-triazole] belongs greater than 20 µM.
Consider `CN(C)CCOc1ccc(Nc2nc(N)n(C(=O)c3ccc4c(c3)NC(=O)C(C)(C)O4)n2)cc1` [compound 86, 5-amino-3-[4-[2-(dimethylamino)ethoxy]phenylamino]-1-(2,2-dimethyl-2H-benzo[b][1,4]oxazin-3(4H)-on-6-yl)carbonyl-1H-1,2,4-triazole], for which the IC50 under setting [4] was less than 1 µM.
The molecule `Cc1cccc(C(=O)n2nc(Nc3ccc4oc(C(=O)NCCOC5CCCCO5)cc4c3)nc2N)c1` (stereo not shown) [compound 207, 5-amino-1-(3-methylphenyl)carbonyl-3-[2-[N-[2-(tetrahydropyran-2-yloxy)ethyl]amino]carbonylbenzofuran-5-yl]amino-1H-1,2,4-triazole] showed a concentration for half-maximal inhibition (IC50) under setting [7] of 1 to 10 µM.
Molecule `Cc1ccc(C(=O)n2nc(Nc3ccc(OC(C)C)cc3)nc2N)cc1` [compound 55, 5-amino-3-[4-(iso-propoxy)phenylamino]-1-(4-(methyl)phenyl)carbonyl-1H-1,2,4-triazole] yielded a half-maximal inhibitory concentration (IC50) under setting [3] of less than 1 µM.
`Nc1nc(Nc2ccc3c(c2)OCCO3)nn1C(=O)c1ccc(F)cc1` [compound 100, 5-amino-3-(1,4-benzodioxan-6-yl)amino-1-(4-(fluoro)phenyl)carbonyl-1H-1,2,4-triazole] returned an IC50 under setting [3] greater than 20 µM.

The record behind these values is patent publication US8389557B2, “Triazole derivatives useful as Axl inhibitors” (Rigel Pharmaceuticals, Inc., priority 2005, dated 2013).
